Laboratory results: US20210214375A1 (LUNDBECK LA JOLLA RESEARCH CENTER, INC., priority 2017, published 2021)

Tests used:
[1] = biological target: T1, MAGL (Mus musculus, UniProt O35678); assay: Mouse brain proteomes from inhibitor treated mice (oral gavage, brain proteomes analyzed 4 h after administration); type: in vivo, mouse (C57Bl/6J); conditions: brain proteome 4 h after administration, read-out: % Inh 5 mg/kg MGLL (Mouse)
T1 construct: from tissue; host or cells: brain of wild-type C57Bl/6J mice
T1 sequence (O35678 1-303): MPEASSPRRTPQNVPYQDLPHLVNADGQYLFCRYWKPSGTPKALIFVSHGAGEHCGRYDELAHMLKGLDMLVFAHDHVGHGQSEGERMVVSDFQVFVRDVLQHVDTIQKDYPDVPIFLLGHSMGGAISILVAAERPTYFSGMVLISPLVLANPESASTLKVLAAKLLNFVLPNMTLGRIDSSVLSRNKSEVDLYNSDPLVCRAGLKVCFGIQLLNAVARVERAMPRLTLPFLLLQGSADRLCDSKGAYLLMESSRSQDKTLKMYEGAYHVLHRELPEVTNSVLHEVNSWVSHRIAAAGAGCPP
Method: Compounds are tested to assess their MAGL and serine hydrolase activity using the following in vitro and in vivo assays.
Preparation of Mouse Brain Proteomes from Inhibitor Treated Mice.
Inhibitors were administered to wild-type C57Bl/6J by oral gavage in a vehicle of polyethylene glycol. Each animal was sacrificed 4 h following administration and brain proteomes were prepared and analyzed according to previously established methods (See Niphakis, M. J., et al. (2011) ACS Chem. Neurosci. and Long, J. Z., et al. Nat. Chem. Biol. 5:37-44).

[2] = biological target: T2, MGLL (Mus musculus, UniProt O35678); assay: In vitro competitive activity-based protein profiling, mouse brain proteome; type: biochemical
T2 construct: Brain; from tissue; host or cells: mouse brain proteome
T2 sequence (O35678 1-303): T1 sequence (O35678 1-303)
Method: [Worded in the source for another species; this species is reported under the same test.] (§1) Proteomes (human prefrontal cortex or cell membrane fractions) (50 μL, 1.0 mg/mL total protein concentration) were preincubated with varying concentrations of inhibitors at 37° C. After 30 min, FP—Rh or HT-01 (1.0 μL, 50 μM in DMSO) was added and the mixture was incubated for another 30 min at room temperature. Reactions were quenched with SDS loading buffer (15 μL-4×) and run on SDS-PAGE.

[3] = biological target: T3, ABHD6 (Mus musculus, UniProt Q8R2Y0); assay: In vitro competitive activity-based protein profiling, mouse brain proteome, ABHD6; type: biochemical; conditions: mouse
T3 construct: Brain; from tissue; host or cells: mouse brain proteome
T3 sequence (Q8R2Y0 1-336): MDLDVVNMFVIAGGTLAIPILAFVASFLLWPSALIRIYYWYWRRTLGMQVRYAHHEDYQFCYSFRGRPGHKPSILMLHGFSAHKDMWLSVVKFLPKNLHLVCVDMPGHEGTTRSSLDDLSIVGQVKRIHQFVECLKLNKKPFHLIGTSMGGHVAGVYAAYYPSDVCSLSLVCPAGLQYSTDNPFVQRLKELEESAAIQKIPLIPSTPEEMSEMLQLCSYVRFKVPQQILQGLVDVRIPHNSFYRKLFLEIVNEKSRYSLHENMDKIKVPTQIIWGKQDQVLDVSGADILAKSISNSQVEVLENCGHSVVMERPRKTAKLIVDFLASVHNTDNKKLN
Method: [Worded in the source for another target; this target is reported under the same test.] as §1

[4] = biological target: T4, MAGL (Homo sapiens, UniProt Q99685); assay: In vitro competitive activity-based protein profiling (gel-based, FP-Rh or HT-01 probe); type: biochemical; conditions: PC3 proteome, read-out: IC50 MGLL PC3 (Human)
T4 construct: Proteomes (human prefrontal cortex or cell membrane fractions); from tissue
T4 sequence (Q99685 1-303): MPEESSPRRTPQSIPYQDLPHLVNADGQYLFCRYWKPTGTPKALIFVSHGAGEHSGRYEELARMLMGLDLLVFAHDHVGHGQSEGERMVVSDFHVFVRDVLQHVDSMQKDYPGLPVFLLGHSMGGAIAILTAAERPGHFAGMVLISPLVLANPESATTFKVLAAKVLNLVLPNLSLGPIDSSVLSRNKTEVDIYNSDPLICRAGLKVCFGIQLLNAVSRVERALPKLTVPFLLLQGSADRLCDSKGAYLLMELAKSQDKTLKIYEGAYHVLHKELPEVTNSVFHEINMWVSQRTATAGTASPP
Procedure, shortened: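 Human prefrontal cortex or cell membrane proteomes (1.0 mg/mL protein) preincubated with varying inhibitor concentrations 30 min at 37° C. FP-Rh or HT-01 probe (1.0 μL of 50 μM stock) then added for 30 min at room temperature; reactions quenched with SDS loading buffer and resolved by SDS-PAGE.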

SMILES | inhibition at 5 mg/kg [1] [%] | IC50 [2] [nM] | IC50 [3] [nM] | IC50 [4] [nM]
CS(=O)(=O)N1CCC2(CCN(c3cc(Cl)ccc3CN3CCN(C(=O)OC(C(F)(F)F)C(F)(F)F)CC3)C2)CC1 [Example 30, 1,1,1,3,3,3-Hexafluoropropan-2-yl 4-(4-chloro-2-(8-(methylsulfonyl)-2,8-diazaspiro[4.5]decan-2-yl)benzyl)piperazine-1-carboxylate] | ≤ 25 | < 100 | > 1000 | –
O=C(OC(C(F)(F)F)C(F)(F)F)N1CCC2(CC1)CN(Cc1c(Cl)cccc1N1CC3COCC3C1)C2 (stereo not shown) [Example 57, 1,1,1,3,3,3-Hexafluoropropan-2-yl 2-(2-chloro-6-(tetrahydro-1H-furo[3,4-c]pyrrol-5(3H)-yl)benzyl)-2,7-diazaspiro[3.5]nonane-7-carboxylate] | ≥ 75 | < 100 | 100 to 1000 | –
CS(=O)(=O)N1CC2(CCN(c3cc(C(F)(F)F)ccc3CN3CCN(C(=O)OC(C(F)(F)F)C(F)(F)F)CC3)CC2)C1 [Example 211, 1,1,1,3,3,3-Hexafluoropropan-2-yl 4-(2-(2-(methylsulfonyl)-2,7-diazaspiro[3.5]nonan-7-yl)-4-(trifluoromethyl)benzyl)piperazine-1-carboxylate] | ≥ 75 | < 100 | > 1000 | –
CC(=O)N1CCC2(CC1)CN(c1cc(Cl)ccc1CN1CCN(C(=O)OC(C(F)(F)F)C(F)(F)F)CC1)C2 [Example 198, 1,1,1,3,3,3-Hexafluoropropan-2-yl 4-(2-(7-acetyl-2,7-diazaspiro[3.5]nonan-2-yl)-4-chlorobenzyl)piperazine-1-carboxylate] | ≥ 75 | < 100 | > 1000 | –
O=C(OC(C(F)(F)F)C(F)(F)F)N1CCC2(CC1)CN(Cc1c(N3CCC4(CCOCC4)C3)cccc1C(F)(F)F)C2 [Example 52, 1,1,1,3,3,3-Hexafluoropropan-2-yl 2-(2-(8-oxa-2-azaspiro[4.5]decan-2-yl)-6-(trifluoromethyl)benzyl)-2,7-diazaspiro[3.5]nonane-7-carboxylate] | ≥ 75 | < 100 | 100 to 1000 | –
O=C(OC(C(F)(F)F)C(F)(F)F)N1CCC2(CCN(Cc3cccc(Cl)c3N3CCCC3)CC2)C1 [Example 171, 1,1,1,3,3,3-Hexafluoropropan-2-yl 8-(3-chloro-2-(pyrrolidin-1-yl)benzyl)-2,8-diazaspiro[4.5]decane-2-carboxylate] | ≥ 75 | < 100 | > 1000 | –
CS(=O)(=O)N1CCC2(CCN(c3cc(CN4CCCC45CN(C(=O)OC(C(F)(F)F)C(F)(F)F)C5)cc(C(F)(F)F)c3)CC2)C1 [Example 233, 1,1,1,3,3,3-Hexafluoropropan-2-yl 5-(3-(2-(methylsulfonyl)-2,8-diazaspiro[4.5]decan-8-yl)-5-(trifluoromethyl)benzyl)-2,5-diazaspiro[3.4]octane-2-carboxylate] | ≤ 25 | < 100 | > 1000 | –
CS(=O)(=O)N1CCC2(CCN(c3cccc(C(F)(F)F)c3CN3CC4(CCN(C(=O)OC(C(F)(F)F)C(F)(F)F)CC4)C3)CC2)C1 [Example 62, 1,1,1,3,3,3-Hexafluoropropan-2-yl 2-(2-(2-(methylsulfonyl)-2,8-diazaspiro[4.5]decan-8-yl)-6-(trifluoromethyl)benzyl)-2,7-diazaspiro[3.5]nonane-7-carboxylate] | 25 to 75 | < 100 | > 1000 | –
CCN1CCN(c2cccc(Cl)c2CN2CC3(CCN(C(=O)OC(C(F)(F)F)C(F)(F)F)CC3)C2)CC1 [Example 50, 1,1,1,3,3,3-Hexafluoropropan-2-yl 2-(2-chloro-6-(4-ethylpiperazin-1-yl)benzyl)-2,7-diazaspiro[3.5]nonane-7-carboxylate] | ≤ 25 | < 100 | 100 to 1000 | –
CC(=O)N1CCC2(CCN(c3ccccc3CN3CCN(C(=O)OC(C(F)(F)F)C(F)(F)F)CC3)C2)C1 (stereo not shown) [Example 166, 1,1,1,3,3,3-Hexafluoropropan-2-yl 4-(2-(7-acetyl-2,7-diazaspiro[4.4]nonan-2-yl)benzyl)piperazine-1-carboxylate] | ≤ 25 | < 100 | > 1000 | –
CC(=O)N1CCN(c2cccc(C(F)(F)F)c2CN2CC3(CCN(C(=O)OC(C(F)(F)F)C(F)(F)F)CC3)C2)CC1 [Example 59, 1,1,1,3,3,3-Hexafluoropropan-2-yl 2-(2-(4-acetylpiperazin-1-yl)-6-(trifluoromethyl)benzyl)-2,7-diazaspiro[3.5]nonane-7-carboxylate] | ≥ 75 | < 100 | 100 to 1000 | –
O=C(OC(C(F)(F)F)C(F)(F)F)N1CCC2(CCN(Cc3ccc(C(F)(F)F)cc3N3CC4CCC(C3)O4)CC2)C1 [Example 190, 1,1,1,3,3,3-Hexafluoropropan-2-yl 8-(2-(8-oxa-3-azabicyclo[3.2.1]octan-3-yl)-4-(trifluoromethyl)benzyl)-2,8-diazaspiro[4.5]decane-2-carboxylate] | ≥ 75 | < 100 | > 1000 | –
O=C(OC(C(F)(F)F)C(F)(F)F)N1CCC2(CC1)CN(Cc1c(Cl)cccc1N1CCN(C3CC3)CC1)C2 [Example 58, 1,1,1,3,3,3-Hexafluoropropan-2-yl 2-(2-chloro-6-(4-cyclopropylpiperazin-1-yl)benzyl)-2,7-diazaspiro[3.5]nonane-7-carboxylate] | ≥ 75 | < 100 | 100 to 1000 | –
CC(=O)N1CCC2(CC1)CCN(c1cc(Cl)ccc1CN1CCN(C(=O)OC(C(F)(F)F)C(F)(F)F)CC1)C2 [Example 29, 1,1,1,3,3,3-Hexafluoropropan-2-yl 4-(2-(8-acetyl-2,8-diazaspiro[4.5]decan-2-yl)-4-chlorobenzyl)piperazine-1-carboxylate] | ≥ 75 | < 100 | > 1000 | –
CC(=O)N1CC2(CCN(c3cc(Cl)ccc3CN3CCN(C(=O)OC(C(F)(F)F)C(F)(F)F)CC3)C2)C1 [Example 176, 1,1,1,3,3,3-Hexafluoropropan-2-yl 4-(2-(2-acetyl-2,6-diazaspiro[3.4]octan-6-yl)-4-chlorobenzyl) piperazine-1-carboxylate] | ≥ 75 | < 100 | > 1000 | –
CCN1CC2(CCN(c3cc(C(F)(F)F)ccc3CN3CCN(C(=O)OC(C(F)(F)F)C(F)(F)F)CC3)C2)C1 [Example 184, 1,1,1,3,3,3-Hexafluoropropan-2-yl 4-(2-(2-ethyl-2,6-diazaspiro[3.4]octan-6-yl)-4-(trifluoromethyl)benzyl)piperazine-1-carboxylate] | ≤ 25 | < 100 | > 1000 | –
O=C(O)CN1CC2CN(c3cc(C(F)(F)F)ccc3CN3CCCC34CCN(C(=O)OC(C(F)(F)F)C(F)(F)F)CC4)CC2C1 (stereo not shown) [Example 155] | ≤ 25 | – | – | < 100
O=C(O)CN1CC2CC1CN2c1cc(C(F)(F)F)ccc1CN1CCCC12CCN(C(=O)OC(C(F)(F)F)C(F)(F)F)CC2 (stereo not shown) [Example 126, 2-(5-{2-[(8-{[(1,1,1,3,3,3-Hexafluoropropan-2-yl)oxy]carbonyl}-1,8-diazaspiro[4.5]decan-1-yl)methyl]-5-(trifluoromethyl)phenyl}-2,5-diazabicyclo[2.2.1]heptan-2-yl)acetic acid] | ≤ 25 | – | – | < 100
